From patent US10202361B2, “Pyridazinones as herbicides” (E I DU PONT DE NEMOURS AND COMPANY, priority 2014, dated 2019)
Where two headings read alike, the source gives them in different places.

Columns and labels:
Type in all cases: in vivo
[1] = system: crabgrass, Large (large crabgrass, Digitaria sanguinalis); assay: Test A pre-/postemergence greenhouse herbicide test; settings: Digitaria sanguinalis, 240 h, 0 to 100 scale (0 no effect, 100 complete control), approx. 10 d, read-out: Plant response rating, Crabgrass, Large; for pest or weed control at 125 g/ha: 125 g ai/ha; for pest or weed control at 500 g/ha: 500 g ai/ha
Summary of the method: (§1)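 Seeds sown in loam–sand blend received a directed preemergence soil spray; postemergence spray was applied at the same time to plants 2–10 cm tall at one- to two-leaf stage. Compounds were in non-phytotoxic solvent with surfactant. Visual injury versus untreated controls after ~10 d in greenhouse, 0–100 scale (100 = complete control).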

[2] = system: wheat (Triticum aestivum); assay: as above; settings: Triticum aestivum, 240 h, 0 to 100 scale (0 no effect, 100 complete control), approx. 10 d, read-out: Plant response rating, Wheat; for plant injury at 125 g/ha: 125 g ai/ha; for plant injury at 500 g/ha: 500 g ai/ha
Summary of the method: as §1

[3] = system: morningglory (Ipomoea spp.); assay: as above; settings: Ipomoea, 240 h, 0 to 100 scale (0 no effect, 100 complete control), approx. 10 d, read-out: Plant response rating, Morningglory; for pest or weed control at 125 g/ha: 125 g ai/ha; for pest or weed control at 500 g/ha: 500 g ai/ha
Summary of the method: as §1

[4] = system: foxtail, giant (giant foxtail, Setaria faberii); assay: as above; settings: Setaria faberi, 240 h, 0 to 100 scale (0 no effect, 100 complete control), approx. 10 d, read-out: Plant response rating, Foxtail, Giant; for pest or weed control at 125 g/ha: 125 g ai/ha; for pest or weed control at 500 g/ha: 500 g ai/ha
Summary of the method: as §1

[5] = system: barnyardgrass (Echinochloa crus-galli); assay: as above; settings: Echinochloa crus-galli, 240 h, 0 to 100 scale (0 no effect, 100 complete control), approx. 10 d, read-out: Plant response rating, Barnyardgrass; for pest or weed control at 125 g/ha: 125 g ai/ha; for pest or weed control at 500 g/ha: 500 g ai/ha
Summary of the method: as §1

[6] = system: velvetleaf (Abutilon theophrasti); assay: as above; settings: Abutilon theophrasti, 240 h, 0 to 100 scale (0 no effect, 100 complete control), approx. 10 d, read-out: Plant response rating, Velvetleaf; for pest or weed control at 125 g/ha: 125 g ai/ha; for pest or weed control at 500 g/ha: 500 g ai/ha
Summary of the method: as §1

[7] = system: pigweed (Amaranthus retroflexus); assay: as above; settings: Amaranthus retroflexus, 240 h, 0 to 100 scale (0 no effect, 100 complete control), approx. 10 d, read-out: Plant response rating, Pigweed; for pest or weed control at 125 g/ha: 125 g ai/ha; for pest or weed control at 500 g/ha: 500 g ai/ha
Summary of the method: as §1

corn (Zea mays) = assay: as above; settings: Zea mays, 240 h, 0 to 100 scale (0 no effect, 100 complete control), approx. 10 d; for Corn plant response rating (crop injury, 0 = no effect, 100 = complete kill) at 125 g/ha: 125 g ai/ha; for Corn plant response rating (crop injury, 0 = no effect, 100 = complete kill) at 500 g/ha: 500 g ai/ha
Summary of the method: as §1

[8] = system: galium (catchweed bedstraw, Galium aparine); assay: Test C pre-/postemergence greenhouse herbicide test; settings: pre-emergence, Galium, Preemergence, read-out: Plant response rating
Summary of the method: (§2)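 Plant response is scored on a 0–100 scale, where 100 means complete control, by visual comparison with controls 13 to 15 d after greenhouse treatment. Applications are made pre- and postemergence using a surfactant-containing, non-phytotoxic solvent formulation.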

[9] = system: barnyardgrass (Echinochloa crus-galli); assay: as above; settings: Barnyardgrass, Preemergence
Summary of the method: as §2

Compound CCOc1cc(=O)n(-c2ccc(F)cc2)nc1Cc1ccnc(C(F)(F)F)c1 [Compound 25, 5-ethoxy-2-(4-fluorophenyl)-6-[[2-(trifluoromethyl)-4-pyridinyl]methyl]-3 (2H)-pyridazinone] has a pest or weed control at 125 g/ha ([1]; post-emergence, Postemergence) of 80%, a pest or weed control at 500 g/ha ([1]; post-emergence, Postemergence) of 90% and a pest or weed control at 125 g/ha ([1]; pre-emergence, Preemergence) of 100%. It also gave a pest or weed control at 500 g/ha ([1]; pre-emergence, Preemergence) of 100%, a plant injury at 125 g/ha ([2]; post-emergence, Postemergence) of 60% and a plant injury at 500 g/ha ([2]; post-emergence, Postemergence) of 70%. It also gave a plant injury at 125 g/ha ([2]; pre-emergence, Preemergence) of 30%, a plant injury at 500 g/ha ([2]; pre-emergence, Preemergence) of 60% and a pest or weed control at 125 g/ha ([3]; post-emergence, Postemergence) of 40%. It also gave a pest or weed control at 500 g/ha ([3]; post-emergence, Postemergence) of 90%, a pest or weed control at 125 g/ha ([3]; pre-emergence, Preemergence) of 30% and a pest or weed control at 500 g/ha ([3]; pre-emergence, Preemergence) of 90%. For the same compound, the pest or weed control at 125 g/ha ([4]; post-emergence, Postemergence) was 70%, the pest or weed control at 500 g/ha ([4]; post-emergence, Postemergence) was 90% and the pest or weed control at 125 g/ha ([4]; pre-emergence, Preemergence) was 100%. The pest or weed control at 500 g/ha ([4]; pre-emergence, Preemergence) was 100%, the pest or weed control at 125 g/ha ([5]; post-emergence, Postemergence) was 80% and the pest or weed control at 500 g/ha ([5]; post-emergence, Postemergence) was 90%. For the same compound, the pest or weed control at 125 g/ha ([5]; pre-emergence, Preemergence) was 90%, the pest or weed control at 500 g/ha ([5]; pre-emergence, Preemergence) was 100% and the pest or weed control at 125 g/ha ([6]; post-emergence, Postemergence) was 60%. It also gave a pest or weed control at 500 g/ha ([6]; post-emergence, Postemergence) of 100%, a pest or weed control at 125 g/ha ([6]; pre-emergence, Preemergence) of 40% and a pest or weed control at 500 g/ha ([6]; pre-emergence, Preemergence) of 100%. It also gave a pest or weed control at 125 g/ha ([7]; post-emergence, Postemergence) of 100%, a pest or weed control at 500 g/ha ([7]; post-emergence, Postemergence) of 100% and a pest or weed control at 125 g/ha ([7]; pre-emergence, Preemergence) of 100%. The pest or weed control at 500 g/ha ([7]; pre-emergence, Preemergence) was 100%, the Corn plant response rating (crop injury, 0 = no effect, 100 = complete kill) at 125 g/ha (corn (Zea mays); post-emergence, Postemergence) was 70% and the Corn plant response rating (crop injury, 0 = no effect, 100 = complete kill) at 500 g/ha (corn (Zea mays); post-emergence, Postemergence) was 80%. For the same compound, the Corn plant response rating (crop injury, 0 = no effect, 100 = complete kill) at 125 g/ha (corn (Zea mays); pre-emergence, Preemergence) was 50%, the Corn plant response rating (crop injury, 0 = no effect, 100 = complete kill) at 500 g/ha (corn (Zea mays); pre-emergence, Preemergence) was 50% and the pest or weed control at 31 g/ha ([8]; 31 g ai/ha) was 85%. The pest or weed control at 62 g/ha ([8]; 62 g ai/ha) was 90%, the pest or weed control at 125 g/ha ([8]; 125 g ai/ha) was 100% and the pest or weed control at 250 g/ha ([8]; 250 g ai/ha) was 100%. It also gave a Plant response rating ([9]; 31 g ai/ha) of 35, a Plant response rating ([9]; 62 g ai/ha) of 85 and a Plant response rating ([9]; 125 g ai/ha) of 95. The Plant response rating ([9]; 250 g ai/ha) was 98.
